In US11098054B2, “Englerin derivatives for treatment of cancer” (The United States of America,as represented by the …, priority 2017, dated 2021) one finds GI50 data, which are given here for seven compounds.

Holding throughout (type): cell-based
The test system of one assay is OVCAR-8. Nature of the assay: NCI 60-cell line protocol, OVCAR-8 (ovarian). As to conditions: Homo sapiens, 48 h, two days drug exposure, SRB endpoint, read-out: GI-50 value. The procedure: (§1) Samples containing exemplary compounds of formulas (Ia)-(Ig) were tested in the standard National Cancer Institute 60-cell line protocol. First, they were tested against all 60 cell lines in a single final concentration of 10 micromolar. Then, they were separately tested in five 10-fold dilutions. The drug exposure was two days, with an SRB endpoint.

In the next assay the test system is BT-549. The assay can be described thus: NCI 60-cell line protocol, BT-549 (breast). To be noted: Homo sapiens, 48 h, two days drug exposure, SRB endpoint, read-out: GI-50 value. The procedure:
as §1

The next assay concerns 786-0. The assay can be described thus: NCI 60-cell line protocol, 786-0 (renal). To be noted: Homo sapiens, 48 h, two days drug exposure, SRB endpoint, read-out: GI-50 value. The procedure: as §1
The subject of the next assay is ACHN. Nature of the assay: NCI 60-cell line protocol, ACHN (renal). To be noted: Homo sapiens, 48 h, two days drug exposure, SRB endpoint, read-out: GI-50 value. The procedure:
as §1

For another assay, the system named is SN12C. The assay can be described thus: NCI 60-cell line protocol, SN12C (renal). As to conditions: Homo sapiens, 48 h, two days drug exposure, SRB endpoint, read-out: GI-50 value. The procedure: as §1
Another assay has as its system UO-31. The assay can be described thus: NCI 60-cell line protocol, UO-31 (renal). As to conditions: Homo sapiens, 48 h, two days drug exposure, SRB endpoint, read-out: GI-50 value. As for the experimental part:
as §1

A further assay has as its system RXF 393. Nature of the assay: NCI 60-cell line protocol, RXF 393 (renal). To be noted: Homo sapiens, 48 h, two days drug exposure, SRB endpoint, read-out: GI-50 value. The procedure: as §1
For the next assay, the system named is A498. The assay can be described thus: NCI 60-cell line protocol, A498 (renal). To be noted: Homo sapiens, 48 h, two days drug exposure, SRB endpoint, read-out: GI-50 value. The procedure:
as §1

The subject of a further assay is HS 578T. The assay can be described thus: NCI 60-cell line protocol, HS 578T (breast). To be noted: Homo sapiens, 48 h, two days drug exposure, SRB endpoint, read-out: GI-50 value. The procedure: as §1
The test system of assay [1] is cancer cell lines within the NCI 60 cell assay. The assay can be described thus: NCI 60 cell assay, cancer cell line panel. To be noted: Homo sapiens, average over the nine cell lines of Table 1, read-out: Average GI-50. As for the experimental part: as §1

As to `C[C@@H]1CC[C@@H]2C1[C@H](OC(=O)/C=C/c1ccccc1)C1(C3CCCCC3)C[C@@H](NC(=O)CO)C2(C)O1` (stereo partly shown) [(Ia)], the GI50 in the assay on OVCAR-8 worked out at 16.2 µM; with BT-549, 13200 nM; with 786-0, 14.8 µM; in the assay on ACHN, 3470 nM; in the assay on SN12C it was 11500 nM; with UO-31, 4790 nM. The GI50 worked out at 3310 nM in the assay with RXF 393, 2190 nM with A498, 2820 nM in the assay with HS 578T and 8030 nM in [1].
Take `C[C@@H]1CC[C@@H]2C1[C@H](OC(=O)/C=C/c1ccccc1)[C@]1(C3CCCCC3)C[C@@H](OC(=O)CO)[C@@]2(C)O1` (stereo partly shown) [(Ib)]: the GI50 amounted to 0.513 µM in the assay on OVCAR-8; 34 nM with BT-549; 1.18 µM with 786-0; 10 nM with ACHN; 85 nM in the assay with SN12C; 15 nM in the assay on UO-31. Further, the GI50 in the assay on RXF 393 is 78 nM; with A498 it was 19 nM; in the assay with HS 578T it was 24 nM; in assay [1] it was 217 nM.
In the case of `C[C@@H]1CC[C@@H]2C1[C@H](OC(=O)/C=C/c1ccccc1)[C@]1(c3ccccc3)C[C@@H](OC(=O)CO)[C@@]2(C)O1` (stereo partly shown) [(Ic)], the GI50 in the assay with OVCAR-8 was determined as 6.76 µM; in the assay with BT-549 it was 407 nM; in the assay with 786-0, 11.7 µM; in the assay with ACHN, 178 nM; in the assay on SN12C it was 537 nM; in the assay on UO-31, 155 nM. Moreover, the GI50 in the assay on RXF 393 is 251 nM; with A498, 191 nM; in the assay on HS 578T, 112 nM; in [1], 2260 nM.
In the case of `CC1CC[C@@H]2C1[C@H](OC(=O)/C=C/C1CCCCC1)[C@]1(C3CCCCC3)C[C@@H](OC(=O)CO)[C@@]2(C)O1` (stereo partly shown) [(Id)], the GI50 with OVCAR-8 came out at 10.7 µM; in the assay with BT-549, 55 nM; in the assay with 786-0 it was 12 µM; in the assay on ACHN, 22 nM; with SN12C, 32 nM; in the assay with UO-31 it was 29 nM. Also, the GI50 was 34 nM in the assay on RXF 393, 21 nM in the assay on A498, 16 nM in the assay with HS 578T and 2550 nM in assay [1].
In the case of `C/C(=C\C(=O)O[C@H]1C2C(C)CC[C@H]2[C@]2(C)O[C@@]1(C1CCCCC1)C[C@H]2OC(=O)CO)c1ccccc1` (stereo partly shown) [(Ie)], the GI50 in the assay on OVCAR-8 is 4.27 µM; in the assay with BT-549, 120 nM; in the assay on 786-0, 5.13 µM; in the assay with ACHN it was 15 nM; in the assay on SN12C, 23 nM; with UO-31, 62 nM. In addition, the GI50 was determined as 79 nM in the assay on RXF 393, 16 nM with A498, 10 nM in the assay on HS 578T and 1080 nM in assay [1].
As for `CC1CC[C@@H]2C1[C@H](OC(=O)c1ccc3ccccc3c1)[C@]1(C3CCCCC3)C[C@@H](OC(=O)CO)[C@@]2(C)O1` (stereo partly shown) [(If)], the GI50 came to 5.62 µM in the assay on OVCAR-8; 71 nM in the assay with BT-549; 5.37 µM with 786-0; 19 nM with ACHN; 52 nM with SN12C; 40 nM with UO-31. Besides, the GI50 is 71 nM in the assay on RXF 393, 19 nM in the assay with A498, 23 nM in the assay with HS 578T and 1250 nM in [1].
Regarding `Cc1c(C(=O)O[C@H]2C3C(C)CC[C@H]3[C@]3(C)O[C@@]2(C2CCCCC2)C[C@H]3OC(=O)CO)ccc2ccccc12` (stereo partly shown) [(Ig)], the GI50 came to 6.61 µM with OVCAR-8; 5250 nM with BT-549; 6.46 µM in the assay with 786-0; 59 nM in the assay on ACHN; 158 nM with SN12C; 407 nM in the assay on UO-31. The GI50 in the assay on RXF 393 was found to be 166 nM; in the assay with A498, 17 nM; in the assay on HS 578T it was 17 nM; in assay [1] it was 2130 nM.
